Source: patent US5641760A, “Method of treating candida infection” (Pence, Inc., priority 1994, dated 1997)

Experiments:
[1] = test system: Candida albicans strain #40 fimbriae (enriched fimbriae EF, 66 kDa fimbrial subunit/adhesin protein); assay: Thin-layer chromatography plate binding assay of fimbriae to glycosphingolipids; details: 10 μg GSL per spot; 100 μg EF/ml; detected with mAb Fm16
Procedure: Bound fimbriae on the TLC plates were visualized with a Protein G affinity-purified anti-C. albicans fimbriae monoclonal antibody, Fm16, obtained from ascites tumor in Balb/c mice as described below and a goat anti-mouse IgG alkaline phosphatase. […] (Lane 2).
The thin-layer chromatography (TLC) plate binding assay was performed as described by Baker et al. (1) with minor modifications. Aluminum-backed silica gel Si60 high performance TLC plates (Merck Kieselgel Si60, no fluorescence indicator, E. Merck, Darmstadt, Germany) were cut to produce 8×2.5 cm plates which were chromatographed with 100% methanol to the top of the plate to remove impurities and the plates were air dried. Glycosphingolipids (GSLs) (10 μg of each GSL) were loaded 1.0 cm above the base of the plate. The following glycosphingolipids purchased from Sigma Co. (St. Louis, Mo.) were used: mono-sialoganglioside (M-GM1), asialoganglioside GM1 (asialo-GM1), asialoganglioside GM2 (asialo-GM2), lactosylcerebroside (LCS), ceramide trihexoside (CTH). GSLs were separated on the TLC plates in chloroform-methanol-water (65:35:8, v/v/v) and air dried. One set of plates was sprayed with 10% sulphuric acid in ethanol and heated at 100°-150° C. for 5-10 min to char the GSLs for visual detection, and the other set was used for the fimbrial binding assay. The four corners of the plate were bent to 90° and the remainder of the assay was done with the TLC plates inverted in all solutions and at room temperature in an incubator shaker (model G25 Gyroshaker, New Brunswick Scientific, New Jersey, U.S.A.) at 20 rpm agitation. The TLC plate was blocked with 50 mM tris-hydroxy-methyl aminomethane pH 7.5 containing 150 mM NaCl (TBS), 0.25% (w/v) gelatin, 3% (w/v) BSA, 5 mM EDTA and 0.05% (v/v) Nonidet P40 in a glass petri dish for 2 hr at room temperature. The blocking solution was aspirated and 10 ml of EF (100 μg EF/ml in 100 mM TBS, pH 7.5) was then added. The fimbriae were allowed to bind to GSLs for 2 hours at room temperature. The plates were gently washed (2×5 min) with 10 ml of 100 mM TBS containing 0.1% (v/v) Tween 20 (TBST). The murine anti-EF monoclonal antibody, Fm16, was diluted 1:200 with TBST and 10 ml was added to the TLC plates. The solution was incubated for 1 hour at room temperature. Unbound antibodies were removed by washing the plates with 10 ml of TBST (2×5 min). The plate was then incubated with 10 ml of goat anti-mouse immunoglobulin G alkaline phosphatase conjugate (Jackson Laboratories) diluted 1:5,000 with TBST for 1 hour at room temperature. The plates were washed (2×5 min.) with 10 ml of TBST. The alkaline phosphatase activity was localized with Nitro Blue Tetrazolium chloride (NBT) and 5-bromo-4-chloro-3-indolyl phosphate (BCIP) dissolved in 100 mM Tris buffer, pH 9.5 containing 100 mM NaCl and 5 mM MgCl2. Color development was quenched by rinsing the TLC plate with deionized water and submerging the plate into a 150 mM EDTA solution pH 8.0 for 3-5 min. The plates were air dried, stored in plastic in the dark until they were photographed.

[2] = test system: Candida albicans strain #40 fimbriae (enriched fimbriae EF, 66 kDa fimbrial subunit/adhesin protein); assay: Inhibition of fimbriae binding to immobilized βGalNAc(1-4)βGal-BSA conjugate; details: plates coated with 10 μg/ml conjugate
Procedure: Further experiments to determine the specificity of fimbrial binding to GSLs were carried out using a plate binding assay, as described above, but immobilizing on the plates a βGalNAc(1-4)βGal-BSA conjugate, synthesized from βGalNAc(1-4)βGal-O(CH2)8 COOCH3 (Sabesan and Lemieux), as described in Part B, above. The coupling ratio of disaccharide: BSA was 12:1. The protocol utilized for this assay was similar to that employed for the assessment of C. albicans fimbriae binding to GSLs except that the plates were coated with 100 μl/well of a 10 μg/ml solution of synthetic βGalNAc(1-4)βGal-BSA conjugate in 0.01M carbonate buffer, pH 9.5.
Using this assay, it was first determined that fimbriae bind to the βGalNAc(1-4)βGal-BSA conjugate in a saturable, concentration-dependent manner. FIGS. 12A and 12B show the results of experiments in which compounds were tested for ability to inhibit binding of fimbriae to the βGalNAc(1-4)βGal-BSA conjugate. The protocol used in this assay was similar to the one used in the GSL inhibition assay described above, except that the plates were coated with 100 μl/well of a 10 μg/ml solution of synthetic βGalNAc(1-4)βGal-BSA conjugate in 0.01M carbonate buffer, pH 9.5. As depicted in FIG. 12A, βGalNAc(1-4)βGal-methylester ("GalNAcGal") was able to inhibit binding to the GalNAcGal-BSA conjugate in a concentration dependent manner. […]

Row | Substance | Binding of C. albicans fimbriae to glycosphingolipid on TLC plate [1] | Concentration required for half-maximal inhibition of fimbriae binding to βGalNAc(1-4)βGal-BSA conjugate [2]
1 | ceramide trihexoside [CTH, ceramide trihexoside [aGal(1-4)βGal(1-4)βGlc(1-1)Cer]] | failed to bind | 
2 | gangliotetraosylceramide: βGal(1-3)βGalNAc(1-4)βGal(1-4)βGlc(1-1)Cer [asialo-GM1] | bind specifically | 7.5 µg/mL
